# Laboratory results as given in patent publication US20250034170A1, “SMALL MOLECULE MODULATORS OF GLUCOCEREBROSIDASE ACTIVITY AND USES THEREOF” (Vanqua Bio, Inc., priority 2021, published 2025).
# Target: T1, GCase (Homo sapiens, UniProt P04062)
# T1 construct: endogenous in cells; host or cells: HeLa cells
# T1 sequence (P04062 40-536): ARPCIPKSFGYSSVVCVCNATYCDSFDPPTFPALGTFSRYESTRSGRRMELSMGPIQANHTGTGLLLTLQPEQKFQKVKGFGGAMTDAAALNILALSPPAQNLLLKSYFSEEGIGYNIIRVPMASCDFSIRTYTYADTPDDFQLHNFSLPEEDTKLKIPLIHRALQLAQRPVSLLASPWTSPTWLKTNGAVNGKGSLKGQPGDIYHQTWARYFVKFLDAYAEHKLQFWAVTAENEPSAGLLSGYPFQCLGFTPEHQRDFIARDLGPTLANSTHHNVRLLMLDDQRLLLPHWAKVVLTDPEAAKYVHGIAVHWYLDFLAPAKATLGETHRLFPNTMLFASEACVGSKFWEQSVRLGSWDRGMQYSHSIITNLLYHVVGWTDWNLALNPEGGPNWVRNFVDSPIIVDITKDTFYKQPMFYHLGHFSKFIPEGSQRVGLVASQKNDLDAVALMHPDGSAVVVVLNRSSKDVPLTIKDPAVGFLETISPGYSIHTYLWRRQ
# Experiment: activation of GCase in a live cell PFB assay in HELA cells
# Format: cell-based
# Conditions: EC50 given as range classes
# Description: Exemplary compounds were evaluated for activation of GCase in a live cell PFB assay in HELA cells (essentially as described in Ysselstein et al., “LRRK2 kinase activity regulates lysosomal glucocerebrosidase in neurons derived from Parkinson's disease patients” Nature Communications (2019) 10:5570). […] EC50 ranges: A: <10 μM; B: >10-50 μM; C: >50-100 μM; D: >100 μM.
row,EC50 [µM],SMILES
1,< 10,Cc1cc(C(F)(F)F)ncc1N1CC2(CCN(c3cnc4cnn(CC(F)F)c4n3)CC2)CC1=O [Cmpd 778]

# Same assay, conditions: activation of GCase, EC50 ranges
row,EC50 [µM],SMILES
1,< 10,O=C1N(c2cc(C(F)(F)F)ccn2)C(=O)C2(CCN(c3cnc4cnn(CC(F)F)c4n3)CC2)N1Cc1ccc(F)c(F)c1 [Cmpd 719]
2,> 100,O=C1CC2(CN1c1ccnc(C(F)(F)F)c1)C1CC2CN(c2cnc3cnn(CC(F)F)c3n2)C1 (stereo not drawn) [Cmpd 721]
3,10 to 50,O=C1CC2(CN1c1ccc(F)c(C(F)(F)F)c1)C1CC2CN(c2cnc3cnn(CC(F)F)c3n2)C1 (stereo not drawn) [Cmpd 722]
4,10 to 50,O=C1CC2(CC3CCC(C2)N3c2cnc3cnn(CC(F)F)c3n2)CN1c1cc(C(F)(F)F)ccn1 (stereo not drawn) [Cmpd 723]
5,10 to 50,O=C1CC2(CN1c1cc(C(F)(F)F)ccn1)C1CCC2CN(c2cnc3cnn(CC(F)F)c3n2)C1 (stereo not drawn) [Cmpd 724]
6,10 to 50,CC1CN(c2cnc3cnn(CC(F)F)c3n2)CCC12CC(=O)N(c1cc(C(F)(F)F)ccn1)C2 (stereo not drawn) [Cmpd 725]
7,10 to 50,CC1CC2(CCN1c1cnc3cnn(CC(F)F)c3n1)CC(=O)N(c1cc(C(F)(F)F)ccn1)C2 (stereo not drawn) [Cmpd 726]
8,10 to 50,O=C1CC2(CCN(c3cnc4cnn(CC(F)F)c4n3)CC2)CN1c1ccc(F)cc1F [Cmpd 728]
9,< 10,O=C1CC2(CCN(c3cnc4cnn(CC(F)F)c4n3)CC2)CN1c1ccc(C(F)(F)F)cc1F [Cmpd 729]
10,10 to 50,Fc1ccc(N2CCC3(CCN(c4cnc5cnn(CC(F)F)c5n4)CC3)C2)c(F)c1 [Cmpd 730]
11,10 to 50,FC(F)Cn1ncc2ncc(N3CCC4(CCN(c5cnnc(C(F)(F)F)c5)C4)CC3)nc21 [Cmpd 731]
12,10 to 50,FC(F)Cn1ncc2ncc(N3CCC4(CCN(c5ccc(C(F)(F)F)nn5)C4)CC3)nc21 [Cmpd 732]
13,< 10,FC(F)Cn1ncc2ncc(N3CCC4(CCN(c5cncc(C(F)(F)F)n5)C4)CC3)nc21 [Cmpd 733]
14,< 10,FC(F)Cn1ncc2ncc(N3CCC4(CCN(c5cnc(C(F)(F)F)cn5)C4)CC3)nc21 [Cmpd 734]
15,10 to 50,FC(F)Cn1ncc2ncc(N3CCC4(CC3)CCN(c3nccnc3C(F)(F)F)C4)nc21 [Cmpd 735]
16,10 to 50,FC(F)Cn1ncc2ncc(N3CCC4(CCN(c5cnc(C(F)(F)F)nc5)C4)CC3)nc21 [Cmpd 736]
17,< 10,FC(F)Cn1ncc2ncc(N3CCC4(CCN(c5ccnc(C(F)(F)F)n5)C4)CC3)nc21 [Cmpd 737]
18,< 10,FC(F)Cn1ncc2ncc(N3CCC4(CCN(c5ccnc(OCC(F)(F)F)n5)C4)CC3)nc21 [Cmpd 738]
19,< 10,FC(F)Cn1ncc2ncc(N3CCC4(CCN(c5cnc(OCC(F)(F)F)nc5)C4)CC3)nc21 [Cmpd 739]

row,EC50 [µM],SMILES
1,< 10,Fc1cnc(N2CCC3(CCN(c4cnc5cnn(CC(F)F)c5n4)CC3)C2)cc1C(F)(F)F [Cmpd 740]
2,< 10,Fc1cnc(C(F)(F)F)cc1N1CCC2(CCN(c3cnc4cnn(CC(F)F)c4n3)CC2)C1 [Cmpd 741]
3,< 10,Fc1cc(N2CCC3(CCN(c4cnc5cnn(CC(F)F)c5n4)CC3)C2)cnc1C(F)(F)F [Cmpd 742]
4,10 to 50,Fc1cc(C(F)(F)F)cnc1N1CCC2(CCN(c3cnc4cnn(CC(F)F)c4n3)CC2)C1 [Cmpd 743]
5,< 10,CC1CC2(CCN(c3cc(C(F)(F)F)ccn3)C2)CCN1c1cnc2cnn(CC(F)F)c2n1 (stereo not drawn) [Cmpd 745]
6,< 10,CC1CN(c2cnc3cnn(CC(F)F)c3n2)CCC12CCN(c1cc(C(F)(F)F)ccn1)C2 (stereo not drawn) [Cmpd 746]
7,10 to 50,CC1N(c2cc(C(F)(F)F)ccn2)CCC12CCN(c1cnc3cnn(CC(F)F)c3n1)CC2 (stereo not drawn) [Cmpd 747]
8,< 10,CC1CN(c2cc(C(F)(F)F)ccn2)CC12CCN(c1cnc3cnn(CC(F)F)c3n1)CC2 (stereo not drawn) [Cmpd 748]
9,10 to 50,CC1CC2(CCN(c3cnc4cnn(CC(F)F)c4n3)CC2)CN1c1cc(C(F)(F)F)ccn1 (stereo not drawn) [Cmpd 749]
10,< 10,COCCn1ncc2ncc(N3CCC4(CCN(c5cc(C(F)(F)F)ccn5)C4)CC3)nc21 [Cmpd 750]
11,10 to 50,FC(F)OCCn1ncc2ncc(N3CCC4(CCN(c5cc(C(F)(F)F)ccn5)C4)CC3)nc21 [Cmpd 751]
12,< 10,CC(C(F)F)n1ncc2ncc(N3CCC4(CCN(c5cc(C(F)(F)F)ccn5)C4)CC3)nc21 (stereo not drawn) [Cmpd 752]
13,< 10,Cc1cc(C(F)(F)F)ncc1N1CCC2(CCN(c3cnc4cnn(CC(F)F)c4n3)CC2)C1 [Cmpd 753]
14,> 100,FC(F)Cn1ncc2ncc(N3CCC4(CC3)CCN(c3cnc(C(F)(F)F)cc3Cl)C4)nc21 [Cmpd 754]
15,10 to 50,Cc1cc(C)c(N2CCC3(CCN(c4cnc5cnn(CC(F)F)c5n4)CC3)C2)nn1 [Cmpd 755]
16,10 to 50,Cc1cc(C(F)(F)F)nnc1N1CCC2(CCN(c3cnc4cnn(CC(F)F)c4n3)CC2)C1 [Cmpd 756]
17,< 10,Cc1ccc(N2CCC3(CCN(c4cnc5cnn(CC(F)F)c5n4)CC3)C2)nn1 [Cmpd 757]
18,< 10,Cc1nccc(N2CCC3(CCN(c4cnc5cnn(CC(F)F)c5n4)CC3)C2)n1 [Cmpd 758]
19,< 10,Cc1ncc(N2CCC3(CCN(c4cnc5cnn(CC(F)F)c5n4)CC3)C2)cn1 [Cmpd 759]

row,EC50 [µM],SMILES
1,< 10,CCc1ncc(N2CCC3(CCN(c4cnc5cnn(CC(F)F)c5n4)CC3)C2)cn1 [Cmpd 760]
2,< 10,Cc1nc(C(F)(F)F)ncc1N1CCC2(CCN(c3cnc4cnn(CC(F)F)c4n3)CC2)C1 [Cmpd 761]
3,< 10,COc1ncc(N2CCC3(CCN(c4cnc5cnn(CC(F)F)c5n4)CC3)C2)cn1 [Cmpd 762]
4,< 10,CCOc1ncc(N2CCC3(CCN(c4cnc5cnn(CC(F)F)c5n4)CC3)C2)cn1 [Cmpd 763]
5,< 10,Cc1ncc(N2CCC3(CCN(c4cnc5cnn(CC(F)F)c5n4)CC3)C2)nc1C(F)(F)F [Cmpd 764]
6,< 10,Cc1ncc(C(F)(F)F)nc1N1CCC2(CCN(c3cnc4cnn(CC(F)F)c4n3)CC2)C1 [Cmpd 765]
7,< 10,Fc1ncc(C(F)(F)F)nc1N1CCC2(CCN(c3cnc4cnn(CC(F)F)c4n3)CC2)C1 [Cmpd 766]
8,< 10,Fc1ncc(N2CCC3(CCN(c4cnc5cnn(CC(F)F)c5n4)CC3)C2)nc1C(F)(F)F [Cmpd 767]
9,< 10,FC(F)(F)c1cncc(N2CCC3(CCN(c4cnc5cnn(C6COC6)c5n4)CC3)C2)n1 [Cmpd 768]
10,10 to 50,O=C1CC2(CCN(c3cnc4cnn(C5COC5)c4n3)CC2)CN1c1ccnc(C(F)(F)F)c1 [Cmpd 769]
11,< 10,FC(F)Cn1ncc2ncc(N3CC4(CCN(c5cnc(C(F)(F)F)cn5)CC4)C3)nc21 [Cmpd 770]
12,< 10,FC(F)Cn1ncc2ncc(N3CC4(CCN(c5cncc(C(F)(F)F)n5)CC4)C3)nc21 [Cmpd 771]
13,> 100,O=C1N(c2cnc3cnn(CC(F)F)c3n2)CCC12CCN(c1cnc(C(F)(F)F)cn1)CC2 [Cmpd 772]
14,< 10,O=C1N(c2nccc(C(F)(F)F)n2)CCC12CCN(c1cnc3cnn(CC(F)F)c3n1)CC2 [Cmpd 773]
15,< 10,O=C1N(c2cncc(C(F)(F)F)n2)CCC12CCN(c1cnc3cnn(CC(F)F)c3n1)CC2 [Cmpd 774]
16,> 100,Cc1cc(C(F)(F)F)cnc1N1CCC2(CCN(c3cnc4cnn(CC(F)F)c4n3)CC2)C1=O [Cmpd 775]
17,10 to 50,O=C1N(c2ncc(C(F)(F)F)cc2Cl)CCC12CCN(c1cnc3cnn(CC(F)F)c3n1)CC2 [Cmpd 776]
18,> 100,O=C1N(c2ncc(C(F)(F)F)cc2F)CCC12CCN(c1cnc3cnn(CC(F)F)c3n1)CC2 [Cmpd 777]
